Experimental data as given in publication PMC5082338, “Different Culture Metabolites of the Red Sea Fungus Fusarium equiseti Optimize the Inhibition of Hepatitis C Virus NS3/4A Protease (HCV PR)” (Marine Drugs, 2016).
“And” between values parts separate entries of the source, which are not always exact repeats. Equal values may be shown once. Read-outs that look alike come from different tables or passages of the source. Peptide text beside a SMILES is read from it.

B1: T-I: soybean trypsin-chymotrypsin inhibitor (positive control for trypsin) (protein)
chain: DDESSKPCCDQCACTKSNPPQCRCSDMRLNSCHSACKSCICALSYPAQCFCVDITDFCYEPCKPSEDDKEN
modifications: mature limits and check

Legend:
Staphylococcus aureus = experiment: Antimicrobial activity, inhibition zone; format: cell-based; conditions: for zone of inhibition: read-out: Inhibition zone, Staphylococcus aureus
Text: Table 1 Antimicrobial potential of the culture extracts and isolated compounds from F. equiseti. | column: Gram-Positive Bacteria / Staphylococcus aureus

Bacillus subtilis = experiment: Antimicrobial activity, inhibition zone; format: cell-based
Bacillus megaterium = experiment: Antimicrobial activity, inhibition zone; format: cell-based; conditions: Priestia megaterium; for zone of inhibition: read-out: Inhibition zone, Bacillus megaterium
Text: Table 1 Antimicrobial potential of the culture extracts and isolated compounds from F. equiseti. | column: Gram-Positive Bacteria / Bacillus megaterium

Candida albicans = experiment: Antimicrobial activity, inhibition zone; format: cell-based; conditions: oxytetracycline control 30 μg
HCV NS3/4A protease = HCV NS3/4A protease (Hepatitis C virus genotype 1b (strain HC-J4), UniProt O92972); experiment: HCV protease inhibitory activity (SensoLyte 520 HCV protease assay kit, fluorimetric); format: biochemical; conditions: for Inhibition of HCV PR (in words): compared to other constituents; for IC50: recHCV PR, 37 °C, 30 min
Sequence of HCV NS3/4A protease (O92972 1027-1207, other chains not shown): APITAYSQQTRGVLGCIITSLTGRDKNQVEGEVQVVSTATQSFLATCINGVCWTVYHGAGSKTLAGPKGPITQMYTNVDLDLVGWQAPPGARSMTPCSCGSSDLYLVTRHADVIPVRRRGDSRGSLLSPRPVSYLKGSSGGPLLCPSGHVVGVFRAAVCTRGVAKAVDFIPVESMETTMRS
Text: HCV NS3 is considered as a serine protease, its active site contains serine 139 amino acid residues, which attack the substrate by forming a reversible covalent bond with its amino acid residues. To be activated, the HCV NS3 has to be coupled with an activating protein named (4A), and is therefore given the name HCV NS3/4A, which is active only in its heterodimer form. The culture extracts of the endophytic fungus F. equiseti and their isolated compounds were screened for inhibition of HCV protease using the hepatitis virus C NS3 protease inhibitor 2 as a positive control. Moreover, the selectivity of the active metabolites toward HCV NS3/4A protease (viral protease) and not human serine proteases such as trypsin and chymotrypsin has been confirmed through investigating the inhibitory activity of these extracts and/or their isolated chemical constituents on human recombinant Trypsin.
(§1) Sensolyte™ 520 HCV Protease assay kit Fluorimetric (cat#AS-71145), HCV NS3/4A protease and Sensolyte™, Green protease Assay Kit Fluorimetric (cat#AS-71124), and Hepatitis Virus C NS3 protease inhibitor 2 (cat#AS-25346) were purchased from AnaSpec Inc., San Jose, CA, USA. Chymotrypsin inhibitor (Soybean trypsin) was purchased from Sigma Aldrich Co. (St. Louis, MO, USA), and Becton Dickinson Falcon™ (Tokyo, Japan). Microtest 384-well 120 μL black assay plates, no lid, non-sterile, were purchased from Becton Dickinson Inc, Franklin Lakes, NJ, USA. Culture media: Czapek agar, bacteriological peptone, malt extract, yeast extract powder, nutrient agar and potato dextrose broth were procured from Lab M, Bury, UK; Glucose, (Acros Organics, Geel, Belgium), K2HPO4 (Laboratory Reagent, Mumbai, India), MgSO4 (Oxford Laboratory Reagent, Mumbai, India), agar (Sisco Research Laboratories Pvt. Ltd., Mumbai, India).
Samples of 2 μL of culture broth fungus extracts and isolated compounds dissolved in dimethyl sulfoxide (DMSO) were placed in each well of a 384-well microplate, then 8 μL of recHCV PR (0.5 μg/mL) were added, and the plate was briefly agitated. Finally, 10 μL of the freshly prepared substrate [Ac-Asp-Glu-Dap (QXLTM520)-Glu-Glu-Abu-COO-Ala-Ser-Cys(5-FAMsp)-NH2] were added with sequential rotational shaking. The reaction mixture was incubated at 37 °C for 30 min. The fluorimetric analyses were performed on an automated TECAN GENios plate reader (Männedorf, Switzerland) with excitation and emission wavelengths at 485 and 520 nm, respectively. Each sample was tested in triplicate. HCV PR inhibition (%) was calculated using the following equation: % Inhibition = (Fsubstrate − Ftestsample) × 100/Fsubstrate where Fsubstrate is the fluorescence of the enzyme and substrate only, and Ftestsample is the fluorescence of the assay mixture with the added sample.

[1] = target: T1, human recombinant Trypsin (Homo sapiens, UniProt P07477); experiment: Green protease assay (trypsin inhibitory activity); format: biochemical; conditions: 37 °C, 30 min
T1 construct: purchased AnaSpec Inc., San Jose, CA, USA AS-71124 (Green protease Assay Kit; no catalogue number for trypsin itself)
Procedure: as §1, with “Chymotrypsin” for “Sensolyte™ 520 HCV Protease assay kit Fluorimetric (cat#AS-71145), HCV NS3/4A protease and Sensolyte™, Green protease Assay Kit Fluorimetric (cat#AS-71124), and Hepatitis Virus C NS3 protease inhibitor 2 (cat#AS-25346) were purchased from AnaSpec Inc., San Jose, CA, USA. Chymotrypsin”
Then 17.5 μL of assay buffer and 2.5 μL of trypsin (0.1 U/μL) were added and the plate was briefly agitated. […] The positive control was the soybean trypsin-chymotrypsin inhibitor. Inhibition was calculated as above for HCV PR assay.

[2] = Bacillus subtilis, oxytetracycline control 30 μg
[3] = read-out: IC50 HCV Protease Inhibitory Activity

Molecule | zone of inhibition (Staphylococcus aureus; oxytetracycline control 30 μg) [mm] | zone of inhibition (Bacillus subtilis; [2]) [mm] | zone of inhibition (Bacillus megaterium; oxytetracycline control 30 μg) [mm] | IC50 (HCV NS3/4A protease; [3]) | zone of inhibition (Candida albicans) [mm] | IC50 [1] [µM] | other results
CN(C)[C@@H]1C(O)=C(C(N)=O)C(=O)[C@@]2(O)C(O)=C3C(=O)c4c(O)cccc4[C@@](C)(O)[C@H]3[C@H](O)[C@@H]12 [Oxytetracycline, reference compound] | 17 | 18 | 20 |  |  |  | 
CC(C)CC1NC(=O)C(C)NC1=O [compound 1, cyclo-L-Ala-L-Leu] |  |  |  | 58.3 ± 3.51 µM |  |  | zone of inhibition at 30 µg/disc (Candida albicans): 13 mm; Inhibition of HCV PR (in words) (HCV NS3/4A protease): inactive; zone of inhibition at 30 µg/disc (Bacillus megaterium; oxytetracycline control 30 μg): 12 mm
CC(C)[C@@H]1NC(=O)[C@@H]2CCCN2C1=O [compound 2, cyclo(L-Pro-L-Val)] |  | 18 | 11 | 23.2 µM and 23.3 µM | 9 | 54.2 ± 1.88 | Sensitivity of B. subtilis (in words) (Bacillus subtilis): highly sensitive
Cc1c[nH]c(=O)[nH]c1=O [compound 4, thymine] |  |  |  | 51.8 ± 2.49 µM |  |  | Inhibition of HCV PR (in words) (HCV NS3/4A protease): inactive
CC(C)CC1NC(=O)C2CCCN2C(=O)C(Cc2ccccc2)NC(=O)C2CCCN2C1=O (stereo not drawn) [compound 5, cyclo[Phenylalanyl-Pro-Leu-Pro]] (cyclo(FPLP); configuration not given here) | 9 |  | 10 | 29.4 µM and 29.5 µM | 12 | 226 ± 4.26 | 
CC(C=CC=C(C)C(O)C(C)C1CC(O)C(C)=CC=CC(C)C2CC(CC=CC(=O)O1)CC(=O)O2)=Cc1coc(C)n1 (stereo not shown) [compound 6, 17-demethyl-2,11-dideoxy-rhizoxin] |  |  |  |  | 19 | 145 ± 3.66 | zone of inhibition (Staphylococcus aureus): 12 mm; IC50 (HCV NS3/4A protease; IC50 HCV Protease Inhibitory Activity): 34.4 µM; zone of inhibition (Bacillus megaterium): 8 mm
CC(C)[C@@H](C)CC[C@@H](C)C1CCC2C3=CC=C4C[C@@H](O)CC[C@]4(C)C3CC[C@@]21C (stereo partly drawn) [compound 8, ergostra-5,7-dien-3β-ol] |  |  |  | 77.1 ± 4.55 µM |  |  | Inhibition of HCV PR (in words) (HCV NS3/4A protease): inactive
CC[C@@H](CC[C@@H](C)C1CCC2C3CC=C4C[C@@H](O[C@@H]5O[C@H](CO)[C@@H](O)[C@H](O)[C@H]5O)CC[C@]4(C)C3CC[C@@]21C)C(C)C (stereo partly drawn) [compound 9, β-sitosterol 3-O-β-glucoside] | 9 | 11 | 14 | 76.6 ± 3.78 µM | 10 |  | Inhibition of HCV PR (in words) (HCV NS3/4A protease): inactive
CC1=C(O)C(=O)C(Cl)=C(O)C1=O [compound 11, 5-Chloro-3,6-dihydroxy-2-methyl-1,4-benzoquinone] |  |  |  | 35.1 µM |  | 294.8 ± 2.87 | 
COc1cc(O)c2c(=O)c3c(C)cc(O)cc3oc2c1 [compound 12, griseoxanthone C] |  |  |  | 19.8 µM and 19.9 µM |  | 51.3 | zone of inhibition at 30 µg/disc (Bacillus subtilis; [2]): 13 mm; zone of inhibition at 30 µg/disc (Bacillus megaterium; oxytetracycline control 30 μg): 10 mm
Cc1cc(O)c2c(c1)C(=O)c1cccc(O)c1C2=O [compound 13, chrysophanol] | 15 |  | 10 | > 1000 µM | 11 |  | 
O=C1c2cc(O)cc(O)c2C(=O)c2c(O)cc(CO)cc21 [compound 14, ω-hydroxyemodin] | 12 | 9 | 17 | 10.7 µM | 18 | 48.5 | 
O=C1N[C@H](Cc2ccc(O)cc2)C(=O)N2CCC[C@H]12 [compound 15, cyclo(L-Tyr-L-Pro)] |  |  |  | 18.2 ± 1.7 µM |  | 37.9 ± 3.8 | zone of inhibition at 30 µg/disc (Staphylococcus aureus; oxytetracycline control 30 μg): 11 mm; zone of inhibition at 30 µg/disc (Candida albicans): 13 mm; zone of inhibition at 30 µg/disc (Bacillus megaterium; oxytetracycline control 30 μg): 8 mm
OCc1ccc(-c2nccc3c2[nH]c2ccccc23)o1 [compound 16, perlolyrin] | 14 | 8 | 9 | 37.8 µM and 37.9 µM | 10 | > 1000 | 
Nc1ncnc2c1ncn2[C@@H]1O[C@H](CO)C[C@H]1O [compound 17, cordycepin] | 16 | 9 | 11 | 22.3 µM and 22.4 µM | 14 | > 1000 | 
Nc1ncnc2c1ncn2C1OC(CO)C(O)C1O (stereo not shown) [compound 18, ara-A] | 10 | 12 | 12 | 24.5 µM |  | 138 ± 2.49 | 
CCO[C@@H]1O[C@H](CO)[C@@H](O)[C@H](O)[C@H]1O [compound 19, ethyl-O-β-glucoside] |  |  |  | > 1000 µM |  |  | 
B1 |  |  |  |  |  | 0.5 | 
